From patent US9956220B2, “Imidazo-pyridazine derivatives as casein kinase 1 δ/ϵ inhibitors” (Bristol-Myers Squibb Company, priority 2014, dated 2018)

Experiments:
CK1δ = CK1δ (Homo sapiens, UniProt P48730); assay: CK1δ kinase assay (Caliper LABCHIP electrophoretic separation of fluoresceinated peptide substrate and product); format: biochemical; conditions: 200 pM CK1δ, 50 μM ATP, 1.5 μM peptide substrate, 22 hours at room temperature
CK1ϵ = CK1ϵ (Homo sapiens, UniProt P49674); assay: CK1ϵ kinase assay (Caliper LABCHIP electrophoretic separation of fluoresceinated peptide substrate and product); format: biochemical; conditions: 200 pM CK1ϵ, 50 μM ATP, 1.5 μM peptide substrate, 22 hours at room temperature; read-out: CK1ε (IC50)
CK1ϵ, sequence (P49674 whole entry): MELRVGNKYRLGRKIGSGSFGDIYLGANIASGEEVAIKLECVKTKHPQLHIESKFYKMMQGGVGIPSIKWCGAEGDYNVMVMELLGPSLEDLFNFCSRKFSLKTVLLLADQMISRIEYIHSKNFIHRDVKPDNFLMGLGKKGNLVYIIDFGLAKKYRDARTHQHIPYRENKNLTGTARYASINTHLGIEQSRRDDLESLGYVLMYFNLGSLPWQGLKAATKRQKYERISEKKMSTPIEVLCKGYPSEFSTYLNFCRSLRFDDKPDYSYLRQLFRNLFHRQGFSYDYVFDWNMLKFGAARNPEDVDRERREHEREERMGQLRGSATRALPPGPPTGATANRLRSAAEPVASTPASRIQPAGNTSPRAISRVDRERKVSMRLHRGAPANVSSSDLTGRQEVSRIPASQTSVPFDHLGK

CK1δ, sequence (P48730 whole entry): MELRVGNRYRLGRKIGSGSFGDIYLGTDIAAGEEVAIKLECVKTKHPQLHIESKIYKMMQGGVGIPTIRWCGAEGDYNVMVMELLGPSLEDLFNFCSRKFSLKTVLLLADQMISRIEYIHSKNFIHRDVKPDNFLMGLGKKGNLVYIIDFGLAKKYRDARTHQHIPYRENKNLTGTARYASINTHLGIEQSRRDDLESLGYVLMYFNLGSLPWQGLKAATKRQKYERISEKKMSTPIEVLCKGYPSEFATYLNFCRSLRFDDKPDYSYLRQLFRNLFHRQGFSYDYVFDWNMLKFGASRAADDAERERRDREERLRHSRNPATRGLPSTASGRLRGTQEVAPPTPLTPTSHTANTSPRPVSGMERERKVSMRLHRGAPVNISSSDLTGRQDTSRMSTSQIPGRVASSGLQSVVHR

Work on `Cn1cnc(S(=O)(=O)N2CCn3nc(-c4ccc(F)cc4)c(-c4ccc5nc(NC(=O)c6ccnc(F)c6)cn5n4)c3C2)c1` [Example 39, 2-Fluoro-N-(6-(2-(4-fluorophenyl)-5-((1-methyl-1H-imidazol-4-yl)sulfonyl)-4,5,6,7-tetrahydropyrazolo [1,5-a]pyrazin-3-yl)imidazo [1,2-b]pyridazin-2-yl) isonicotinamide] yielded an IC50 (CK1δ) of 0.4 nM and an IC50 (CK1ϵ) of 4.6 nM.

In the case of `O=C(Nc1cn2nc(-c3c(-c4ccc(F)cc4)nn4c3COCC4)ccc2n1)c1ccncc1` [Example 54, N-(6-(2-(4-Fluorophenyl)-6,7-dihydro-4H-pyrazolo[5,1-c][1,4]oxazin-3-yl)imidazo[1,2-b]pyridazin-2-yl)isonicotinamide], the IC50 (CK1δ) is reported as 0.3 nM and the IC50 (CK1ϵ) is reported as 2.6 nM.

With `O=C(Nc1cn2nc(-c3c(-c4ccc(F)cc4)nn4c3CN(C(=O)c3ccccc3F)CC4)ccc2n1)c1ccnc(F)c1` [Example 23, 2-Fluoro-N-(6-(5-(2-fluorobenzoyl)-2-(4-fluorophenyl)-4,5,6,7-tetrahydropyrazolo[1,5-a]pyrazin-3-yl)imidazo[1,2-b]pyridazin-2-yl) isonicotinamide] the IC50 (CK1δ) was 0.1 nM and the IC50 (CK1ϵ) was 0.4 nM.

In the case of `O=C(Nc1cn2nc(-c3c(-c4ccc(F)cc4)nn4c3CN(C(=O)NC3(C(F)(F)F)CC3)CC4)ccc2n1)c1ccnc(F)c1` [Example 51, 3-(2-(2-Fluoroisonicotinamido)imidazo[1,2-b]pyridazin-6-yl)-2-(4-fluorophenyl)-N-(1-(trifluoromethyl)cyclopropyl)-6,7-dihydropyrazolo[1,5-a] pyrazine-5(4H)-carboxamide], the IC50 (CK1δ) is reported as 1.5 nM and the IC50 (CK1ϵ) is reported as 12.3 nM.
